Assays:
rice stem borer [1] = details: U.S. Patent No. 3,969,438; cited from earlier work
tobacco cutworm [2] = details: U.S. Patent No. 3,969,438; cited from earlier work
diamond back moth [3] = details: U.S. Patent No. 3,969,438; cited from earlier work
apple leaf miner = details: U.S. Patent No. 3,969,438; cited from earlier work
smaller tea tortrix = details: U.S. Patent No. 3,969,438; cited from earlier work
carmine mites = test: Miticidal effect on carmine mite (sprayed kidney bean seedling); type: in vivo, Tetranychus cinnabarius; details: 500 ppm
Description: An emulsifiable concentrate prepared as described in Formulation Example 1 and diluted to a predetermined concentration was sprayed using a spray-gun on a seedling of a kidney bean placed in a pot of 12 cm in diameter to which plant carmine mites were parasitic. After drying in air, seedlings were kept in a green house, and the number of living insects was recorded on the 7th, 14th, 21st and 28th day from the day of application to determine the control effects. Three pots were used for each treatment. The control effect was assessed by the following formula: [formula] • wherein Σ indicates sum and Cb, Tb, Cai and Tai have the following meanings. • Cb: Number of living mites in non-treated sample before application. • Tb: Number of living mites in treated sample before application. • Cai: Number of living mites in non-treated sample 7th, 14th, 21 st or 28th day from the application. • Tai: Number of living mites in treated sample 7th, 14th, 21st or 28th day from the application.

egg plant [4] = test: Phytotoxicity observed visually in the mite test on egg plant; type: in vivo; parameters: key: —: None; +: Slightly toxic; ++: Toxic; +++: Strongly toxic; details: 500 ppm, observed visually on the 7th day after the application
Description: (§1) (A) An emulsifiable concentrate prepared as described in Formulation Example 1 and diluted to a predetermined concentration was sprayed using a spray-gun on a seedling of an egg plant placed in a pot of 12 cm in diametre to which plant carmine mites resistant to Kelthane were parasitic. After drying in air, seedlings were kept in a green house, and the number of living insects was recorded on the 7th, 14th, 21 st and 28th day from the day of application to determine the control effects. Three pots were used for each treatment. The control effect was assessed by the formula described in TEST EXAMPLE 7 above. Further, phytotoxicity was observed visually on the 7th day after the application.
as §1, with “(B) An” for “(A) An”, “Example 3” for “Example 1”, “in diameter” for “in diametre”, “in Test” for “in TEST”

[5] = test system: carmine mites resistant to Kelthane; test: Miticidal effect on carmine mite resistant to Kelthane (sprayed egg plant seedling); type: in vivo, Tetranychus cinnabarius; details: 500 ppm; for Number of Living Mites after Application 7th Day / Number of Living Mites after Application 14th Day / Number of Living Mites after Application 21st Day / Number of Living Mites after Application 28th Day: egg plant seedling; for Control Effect (%): from mite counts on 7th, 14th, 21st and 28th day
Description: as §1
as §1, with “(B) An” for “(A) An”, “Example 3” for “Example 1”, “in diameter” for “in diametre”, “in Test” for “in TEST”

tobacco cutworm [6] = test: Insecticidal effect on tobacco cutworm (cabbage leaf dip); type: in vivo, Prodenia litura; details: Table 3; 500 ppm; after 48 hours, 25°C; emulsifiable concentrate as Formulation Example 1
Outline: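 Cabbage leaves dipped in water-diluted emulsifiable concentrate (two formulations, tests A and B) and air-dried were fed to 3rd-instar tobacco cutworm larvae at 25°C. Percent mortality scored after 48 hours; 3 replicates of 30 insects per compound.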

diamond back moth [7] = test: Insecticidal effect on diamond-back moth (cabbage leaf dip); type: in vivo, Plutella xylostella; details: Table 7; 100 ppm; after 72 hours, 25°C; emulsifiable concentrate as Formulation Example 1
Outline: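 Cabbage leaves dipped 10 s in water-diluted emulsifiable concentrate at set concentration, air-dried; thirty 3rd-instar diamond-back moth larvae per cup held at 25°C. Percent mortality scored after 72 h, three replicates per treatment.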

Rice = test: Phytotoxicity on various crops; type: in vivo; parameters: key: Symbol — indicates that no toxicity was observed; details: 500 ppm sprayed; checked visually after 10 days
Outline: (§2)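 Plants were sprayed with an aqueous dilution of an emulsifiable concentrate at 500 ppm of active ingredient, then kept under greenhouse conditions. Injury was assessed by eye ten days later.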

Beet = test: Phytotoxicity on various crops; type: in vivo; parameters: key: Symbol — indicates that no toxicity was observed; details: 500 ppm sprayed; checked visually after 10 days
Outline: as §2

Apple = test: Phytotoxicity on various crops; type: in vivo; parameters: key: Symbol — indicates that no toxicity was observed; details: 500 ppm sprayed; checked visually after 10 days
Outline: as §2

Cucumber = test: Phytotoxicity on various crops; type: in vivo; parameters: key: Symbol — indicates that no toxicity was observed; details: 500 ppm sprayed; checked visually after 10 days
Outline: as §2

Kidney Bean = test: Phytotoxicity on various crops; type: in vivo; parameters: key: Symbol — indicates that no toxicity was observed; details: 500 ppm sprayed; checked visually after 10 days
Outline: as §2

Cabbage = test: Phytotoxicity on various crops; type: in vivo; parameters: key: Symbol — indicates that no toxicity was observed; details: 500 ppm sprayed; checked visually after 10 days
Outline: as §2

Tomato = test: Phytotoxicity on various crops; type: in vivo; parameters: key: Symbol — indicates that no toxicity was observed; details: 500 ppm sprayed; checked visually after 10 days
Outline: as §2

egg plant [8] = test: Phytotoxicity on various crops; type: in vivo; parameters: key: Symbol — indicates that no toxicity was observed; details: 500 ppm sprayed; checked visually after 10 days
Outline: as §2

Cotton = test: Phytotoxicity on various crops; type: in vivo; parameters: key: Symbol — indicates that no toxicity was observed; details: 500 ppm sprayed; checked visually after 10 days
Outline: as §2

Green Pepper = test: Phytotoxicity on various crops; type: in vivo; parameters: key: Symbol — indicates that no toxicity was observed; details: 500 ppm sprayed; checked visually after 10 days
Outline: as §2

Tea = test: Phytotoxicity on various crops; type: in vivo; parameters: key: Symbol — indicates that no toxicity was observed; details: 500 ppm sprayed; checked visually after 10 days
Outline: as §2

rice stem borer [9] = test: Insecticidal effect on rice stem borer, 3rd-instar larvae (rice seedling dip); type: in vivo, Chilo suppressalis; details: Table 1; 500 ppm; after 72 hours, 25°C; wettable powder as Formulation Example 5
Outline: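 Wettable-powder formulations were diluted in water to set concentrations, and rice seedlings were dipped in them. Ten 3rd-instar larvae were placed per capped cup with the treated seedlings and held at 25°C.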

[10] = Table 13, Formulation Example 1
[11] = Table 14, Formulation Example 3

| Structure (SMILES) | Phytotoxicit (egg plant [4]; Table 13) | Phytotoxicit (egg plant [4]; Table 14) | Number of Living Mites after Application 7th Day [5, 10] | Number of Living Mites after Application 14th Day [5, 10] | Number of Living Mites after Application 21st Day [5, 10] | Number of Living Mites after Application 28th Day [5, 10] | Control Effect (%) ([5]; Table 13) | Number of Living Mites after Application 7th Day [5, 11] | Number of Living Mites after Application 14th Day [5, 11] | Number of Living Mites after Application 21st Day [5, 11] | Number of Living Mites after Application 28th Day [5, 11] | Control Effect (%) ([5]; Table 14) | Percent Mortality (%) (tobacco cutworm [6]) | Percent Mortality (%) (diamond back moth [7]) | Phytotoxicity: Rice (Rice) | Phytotoxicity: Beet (Beet) | Phytotoxicity: Apple (Apple) | Phytotoxicity: Cucumber (Cucumber) | Phytotoxicity: Kidney Bean (Kidney Bean) | Phytotoxicity: Cabbage (Cabbage) | also measured |
| --- | --- | --- | --- | --- | --- | --- | --- | --- | --- | --- | --- | --- | --- | --- | --- | --- | --- | --- | --- | --- | --- |
| CCCSP(=O)(OCC)Oc1ccc2c(C)cc(=O)oc2c1 (stereo not shown) |  |  |  |  |  |  |  |  |  |  |  |  |  |  |  |  |  |  |  |  | pesticidal effect on rice stem borer (rice stem borer [1]): to some extent; pesticidal effect on tobacco cutworm (tobacco cutworm [2]): to some extent; pesticidal effect on diamond back moth (diamond back moth [3]): to some extent; pesticidal effect on apple leaf miner (apple leaf miner): less effective; pesticidal effect on smaller tea tortrix (smaller tea tortrix): to some extent |
| OC(c1ccc(Cl)cc1)(c1ccc(Cl)cc1)C(Cl)(Cl)Cl [Kelthane, 2,2,2-trichloro-1,1-bis(4-chlorophenyl)ethanol, reference compound] | +++(*) | +++(*) | 32 | 0 | 118 | 269 | 61.5 | 31 | 58 | 156 | 301 | 32.3 |  |  |  |  |  |  |  |  | Control Effect (%) (carmine mites; Table 12, from mite counts on 7th, 14th, 21st and 28th day): 99.0%; Number of Living Mites after Application 7th Day (carmine mites; Table 12, kidney bean seedling): 0; Number of Living Mites after Application 14th Day (carmine mites; Table 12, kidney bean seedling): 0; Number of Living Mites after Application 21st Day (carmine mites; Table 12, kidney bean seedling): 5; Number of Living Mites after Application 28th Day (carmine mites; Table 12, kidney bean seedling): 15 |
| CCOP(=O)(Oc1ccc2c(c1)OC(C)=CC2(C)C)SC(C)CC (stereo not shown) [compound 6] | — |  | 0 | 0 | 10 | 54 | 96.4 |  |  |  |  |  | 100 | 100 | — | — | — | — | — | — | Control Effect (%) (carmine mites): 94.9%; Number of Living Mites after Application 7th Day (carmine mites): 0; Number of Living Mites after Application 14th Day (carmine mites): 0; Number of Living Mites after Application 21st Day (carmine mites): 4; Number of Living Mites after Application 28th Day (carmine mites): 45; Phytotoxicity: Tomato (Tomato): —; Phytotoxicity: Egg Plant (egg plant [8]): —; Phytotoxicity: Cotton (Cotton): —; Phytotoxicity: Green Pepper (Green Pepper): —; Phytotoxicity: Tea (Tea): —; Percent Mortality (%) (rice stem borer [9]): 100% |
| CCOP(=S)(Oc1ccc2c(c1)OC(C)=CC2(C)C)SC(C)CC (stereo not shown) [compound 11] | — | — | 0 | 3 | 10 | 48 | 97.0 | 0 | 2 | 17 | 56 | 93.1 | 100 | 100 | — | — | — | — | — | — | Phytotoxicity: Tomato (Tomato): —; Phytotoxicity: Egg Plant (egg plant [8]): —; Phytotoxicity: Cotton (Cotton): —; Phytotoxicity: Green Pepper (Green Pepper): —; Phytotoxicity: Tea (Tea): —; Percent Mortality (%) (rice stem borer [9]): 100% |
